Source: patent US20130034509A1, “COSMETIC TREATMENT METHOD INVOLVING A COMPOUND CAPABLE OF CONDENSING IN SITU” (L'OREAL, priority 2009, published 2013)

Experiments:
[1] = Insolubility of the deposit in water in the Petri dish (Example 3); details: general statement in the description
[2] = dispersion contacted on a film of APTES

| Molecule | water solubility of the material resulting from condensation [1] | flocculation of the dispersion [2] |
| --- | --- | --- |
| CCO[Si](CCCN)(OCC)OCC [APTES, γ-aminopropyl triethoxysilane] | high water solubility | – |
| Zinc Pyrithione | – | almost immediate flocculation |
